Measurements reported in the NIST ThermoML archive (doi:10.1016/j.jct.2012.08.030).
± gives the expanded uncertainty stated by the source.

Assay: xn = mol fraction of the nth substance listed
Details: 101.3 kPa, Liquid; for speed of sound: Sing-around technique in a fixed-path interferometer; for mass density: Vibrating tube method

CCCCn1cc[n+](C)c1.COS(=O)(=O)[O-] [1-butyl-3-methylimidazolium methyl sulfate] + CO
Details	mass density, 298.15 K [kg/m3]	mass density, 303.15 K [kg/m3]	mass density, 308.15 K [kg/m3]	speed of sound, 298.15 K [m/s]	speed of sound, 303.15 K [m/s]	speed of sound, 308.15 K [m/s]
x1 = 0.0422	871.193 ± 0.34	866.765 ± 0.34	862.332 ± 0.34	1191.8 ± 0.66	1176.5 ± 0.65	1161.3 ± 0.65
x1 = 0.094	942.4 ± 0.23	938.21 ± 0.23	934.013 ± 0.23	1273.9 ± 0.75	1259.6 ± 0.75	1245.1 ± 0.74
x1 = 0.1857	1027.84 ± 0.2	1023.91 ± 0.19	1019.99 ± 0.19	1384.7 ± 0.94	1371.1 ± 0.94	1357.5 ± 0.94
x1 = 0.2858	1084.79 ± 0.28	1081.04 ± 0.28	1077.29 ± 0.28	1464 ± 1.2	1450.9 ± 1.2	1437.7 ± 1.2
x1 = 0.3729	1118.3 ± 0.43	1114.64 ± 0.42	1111 ± 0.42	1512.2 ± 1.4	1499.3 ± 1.4	1486.4 ± 1.4
x1 = 0.4772	1146.38 ± 0.67	1142.82 ± 0.66	1139.26 ± 0.66	1553.5 ± 1.7	1540.9 ± 1.7	1528.2 ± 1.7
x1 = 0.5769	1166.12 ± 0.95	1162.61 ± 0.95	1159.12 ± 0.94	1583.1 ± 1.9	1570.7 ± 1.9	1558.2 ± 1.9
x1 = 0.6775	1181.29 ± 1.3	1177.83 ± 1.3	1174.38 ± 1.3	1606.1 ± 2.2	1593.8 ± 2.2	1581.4 ± 2.2
x1 = 0.7947	1194.94 ± 1.8	1191.5 ± 1.8	1188.07 ± 1.8	1627 ± 2.5	1614.7 ± 2.5	1602.4 ± 2.5
x1 = 0.8923	1204.14 ± 2.3	1200.73 ± 2.2	1197.33 ± 2.2	1641.7 ± 2.8	1629.5 ± 2.8	1617.2 ± 2.8
x1 = 0.9526	1208.98 ± 2.6	1205.6 ± 2.6	1202.23 ± 2.5	1649.4 ± 3	1637.2 ± 3	1624.9 ± 3
x1 = 1	1212.06 ± 2.8	1208.7 ± 2.8	1205.35 ± 2.8	1654.6 ± 3.1	1642.2 ± 3.1	1630 ± 3.1
